Experimental data reported in patent publication US20230398130A1, “METHODS AND COMPOSITIONS FOR DIFFERENTIATING STEM CELLS” (Massachusetts Institute of Technology, priority 2020, published 2023).

Tests used:
[1] = tested on: ISC-enriched organoids; assay: Primary screen, 384-well 2.5-D organoid differentiation (ENR+CD, 6 days): basal lysozyme secretion (LYZ.NS); assay type: cell-based, murine; settings: for Dose.FC.LYZ.NS: FC vs plate median; for SSMD.LYZ.NS: strictly standardized mean difference; for Dose.FC.LYZ.NS (log 2 fold change, basal lysozyme secretion): vs plate median
Source text: (§1) High-throughput screening.

[2] = tested on: ISC-enriched organoids; assay: Primary screen, 384-well 2.5-D organoid differentiation (ENR+CD, 6 days): carbachol-induced lysozyme secretion (LYZ.S); assay type: cell-based, murine; settings: for Dose.FC.LYZ.S / Z.LYZ.S / SSMD.LYZ.S: primary screen; for Dose.FC.LYZ.S: FC vs plate median; for Z.LYZ.S: standard z score; for SSMD.LYZ.S: strictly standardized mean difference; for Dose.FC.LYZ.S (log 2 fold change, carbachol-induced lysozyme secretion): vs plate median
Source text: as §1

[3] = tested on: ISC-enriched organoids; assay: Primary screen, 384-well 2.5-D organoid differentiation (ENR+CD, 6 days, Target Selective Inhibitor Library, vs whole-plate median): ATP (CellTiter-Glo 3D, CTG); settings: for Dose.FC.CTG: FC vs plate median; for SSMD.CTG: strictly standardized mean difference; for Dose.FC.CTG (log 2 fold change, ATP): vs plate median
[4] = Dose 0.08 uM, standard z score of FC
[5] = Dose 0.40 uM, standard z score of FC
[6] = Dose 2.00 uM, standard z score of FC
[7] = Dose 10.00 uM, standard z score of FC
[8] = primary screen, 1st of the 4 dose lines of the treatment (dose not given)
[9] = primary screen, 2nd of the 4 dose lines of the treatment (dose not given)
[10] = primary screen, 3rd of the 4 dose lines of the treatment (dose not given)
[11] = primary screen, 4th of the 4 dose lines of the treatment (dose not given)
[12] = 1st of the 4 dose lines of the treatment (dose not given)
[13] = 2nd of the 4 dose lines of the treatment (dose not given)
[14] = 3rd of the 4 dose lines of the treatment (dose not given)
[15] = 4th of the 4 dose lines of the treatment (dose not given)
[16] = dose 0.08 uM (1st of 4 lines per treatment; dose not printed in this part)
[17] = dose 0.40 uM (2nd of 4 lines per treatment; dose not printed in this part)
[18] = dose 2.00 uM (3rd of 4 lines per treatment; dose not printed in this part)
[19] = dose 10.00 uM (4th of 4 lines per treatment; dose not printed in this part)
[20] = primary screen, dose 0.08 uM, ENR+CD 6 days
[21] = primary screen, dose 0.08 uM, standard z score of FC
[22] = primary screen, dose 0.40 uM, ENR+CD 6 days
[23] = primary screen, dose 0.40 uM, standard z score of FC
[24] = primary screen, dose 2.00 uM, ENR+CD 6 days
[25] = primary screen, dose 2.00 uM, standard z score of FC
[26] = primary screen, dose 10.00 uM, ENR+CD 6 days
[27] = primary screen, dose 10.00 uM, standard z score of FC
[28] = Dose 0.08 uM, primary screen, standard z score
[29] = Dose 0.40 uM, primary screen, standard z score
[30] = Dose 2.00 uM, primary screen, standard z score
[31] = Dose 10.00 uM, primary screen, standard z score

## O=[N+]([O-])C=Cc1ccc2c(c1)OCO2
[1]; Dose 0.08 uM, primary screen
  Dose.FC.LYZ.NS: 0.057 log 2 fold change
[1]; [4]
  Z.LYZ.NS: 0.499
[1]; Dose 0.40 uM, primary screen
  Dose.FC.LYZ.NS: −0.010 log 2 fold change
[1]; [5]
  Z.LYZ.NS: −0.088
[1]; Dose 2.00 uM, primary screen
  Dose.FC.LYZ.NS: 0.040 log 2 fold change
[1]; [6]
  Z.LYZ.NS: 0.347
[1]; Dose 10.00 uM, primary screen
  Dose.FC.LYZ.NS: −0.150 log 2 fold change
[1]; [7]
  Z.LYZ.NS: −1.307
[1]; [8]
  SSMD.LYZ.NS: 0.518
[1]; [9]
  SSMD.LYZ.NS: −0.082
[1]; [10]
  SSMD.LYZ.NS: 0.270
[1]; [11]
  SSMD.LYZ.NS: −0.670
[2]; Dose 0.08 uM
  Dose.FC.LYZ.S: 0.076 log 2 fold change
[2]; Dose 0.40 uM
  Dose.FC.LYZ.S: 0.100 log 2 fold change
[2]; Dose 2.00 uM
  Dose.FC.LYZ.S: 0.019 log 2 fold change
[2]; Dose 10.00 uM
  Dose.FC.LYZ.S: −0.179 log 2 fold change
[2]; [12]
  Z.LYZ.S: 0.493
  SSMD.LYZ.S: 0.451
[2]; [13]
  Z.LYZ.S: 0.648
  SSMD.LYZ.S: 0.331
[2]; [14]
  Z.LYZ.S: 0.124
  SSMD.LYZ.S: 0.073
[2]; [15]
  Z.LYZ.S: −1.157
  SSMD.LYZ.S: −0.676
[3]; Dose 0.08 uM, primary screen
  Dose.FC.CTG: −0.016 log 2 fold change
[3]; [4]
  Z.CTG: −0.037
[3]; Dose 0.40 uM, primary screen
  Dose.FC.CTG: 0.061 log 2 fold change
[3]; [5]
  Z.CTG: 0.146
[3]; Dose 2.00 uM, primary screen
  Dose.FC.CTG: 0.062 log 2 fold change
[3]; [6]
  Z.CTG: 0.148
[3]; Dose 10.00 uM, primary screen
  Dose.FC.CTG: −0.197 log 2 fold change
[3]; [7]
  Z.CTG: −0.469
[3]; [8]
  SSMD.CTG: −0.026
[3]; [9]
  SSMD.CTG: 0.148
[3]; [10]
  SSMD.CTG: 0.166
[3]; [11]
  SSMD.CTG: −0.338

## O=C(O)C(Cc1ccccc1[N+](=O)[O-])=NNc1nc(-c2ccc(Cl)c(Cl)c2)cs1 (mixture of isomers) [4EGI-1]
[1]; [16]
  SSMD.LYZ.NS_Rep (strictly standardized mean difference): 0.378
[1]; [17]
  SSMD.LYZ.NS_Rep (strictly standardized mean difference): 0.264
[1]; [18]
  SSMD.LYZ.NS_Rep (strictly standardized mean difference): 0.252
[1]; [19]
  SSMD.LYZ.NS_Rep (strictly standardized mean difference): −0.257
[1]; [20]
  Dose.FC.LYZ.NS: 0.110 log 2 fold change
[1]; [21]
  Z.LYZ.NS: 0.956
[1]; [22]
  Dose.FC.LYZ.NS: 0.036 log 2 fold change
[1]; [23]
  Z.LYZ.NS: 0.315
[1]; [24]
  Dose.FC.LYZ.NS: 0.069 log 2 fold change
[1]; [25]
  Z.LYZ.NS: 0.597
[1]; [26]
  Dose.FC.LYZ.NS: −0.034 log 2 fold change
[1]; [27]
  Z.LYZ.NS: −0.300
[2]; [16]
  SSMD.LYZ.S_Rep (strictly standardized mean difference): −0.264
  Z.LYZ.S (standard z score): −0.236
[2]; [17]
  SSMD.LYZ.S_Rep (strictly standardized mean difference): 0.326
  Z.LYZ.S (standard z score): 0.352
[2]; [18]
  SSMD.LYZ.S_Rep (strictly standardized mean difference): −0.328
  Z.LYZ.S (standard z score): −0.380
[2]; [19]
  SSMD.LYZ.S_Rep (strictly standardized mean difference): 0.189
  Z.LYZ.S (standard z score): 0.366
[2]; dose 0.08 uM, ENR+CD 6 days
  Dose.FC.LYZ.S: −0.037 log 2 fold change
[2]; dose 0.40 uM, ENR+CD 6 days
  Dose.FC.LYZ.S: 0.054 log 2 fold change
[2]; dose 2.00 uM, ENR+CD 6 days
  Dose.FC.LYZ.S: −0.059 log 2 fold change
[2]; dose 10.00 uM, ENR+CD 6 days
  Dose.FC.LYZ.S: 0.057 log 2 fold change
[3]; [16]
  SSMD.CTG_Rep (strictly standardized mean difference): −0.352
[3]; [17]
  SSMD.CTG_Rep (strictly standardized mean difference): −0.158
[3]; [18]
  SSMD.CTG_Rep (strictly standardized mean difference): 0.407
[3]; [19]
  SSMD.CTG_Rep (strictly standardized mean difference): −0.283
[3]; [20]
  Dose.FC.CTG: −0.160 log 2 fold change
[3]; [21]
  Z.CTG: −0.383
[3]; [22]
  Dose.FC.CTG: −0.131 log 2 fold change
[3]; [23]
  Z.CTG: −0.314
[3]; [24]
  Dose.FC.CTG: 0.127 log 2 fold change
[3]; [25]
  Z.CTG: 0.304
[3]; [26]
  Dose.FC.CTG: −0.109 log 2 fold change
[3]; [27]
  Z.CTG: −0.261

## Fc1cc(F)c2c(c1)[C@H]1C=CC[C@H]1C(c1cccnc1)N2 (mixture of isomers) [Golgicide A]
[1]; Dose 0.08 uM, primary screen
  Dose.FC.LYZ.NS: 0.267 log 2 fold change
[1]; [28]
  Z.LYZ.NS: 2.325
[1]; Dose 0.40 uM, primary screen
  Dose.FC.LYZ.NS: 0.066 log 2 fold change
[1]; [29]
  Z.LYZ.NS: 0.576
[1]; Dose 2.00 uM, primary screen
  Dose.FC.LYZ.NS: 0.171 log 2 fold change
[1]; [30]
  Z.LYZ.NS: 1.492
[1]; Dose 10.00 uM, primary screen
  Dose.FC.LYZ.NS: −0.161 log 2 fold change
[1]; [31]
  Z.LYZ.NS: −1.402
[2]; Dose 0.08 uM
  Dose.FC.LYZ.S: 0.146 log 2 fold change
[2]; Dose 0.40 uM
  Dose.FC.LYZ.S: 0.202 log 2 fold change
[2]; Dose 2.00 uM
  Dose.FC.LYZ.S: 0.076 log 2 fold change
[2]; Dose 10.00 uM
  Dose.FC.LYZ.S: −0.256 log 2 fold change
[3]; Dose 0.08 uM, primary screen
  Dose.FC.CTG: 0.167 log 2 fold change
[3]; [28]
  Z.CTG: 0.398
[3]; Dose 0.40 uM, primary screen
  Dose.FC.CTG: 0.227 log 2 fold change
[3]; [29]
  Z.CTG: 0.541
[3]; Dose 2.00 uM, primary screen
  Dose.FC.CTG: 0.339 log 2 fold change
[3]; [30]
  Z.CTG: 0.810
[3]; Dose 10.00 uM, primary screen
  Dose.FC.CTG: −0.220 log 2 fold change
[3]; [31]
  Z.CTG: −0.526

## C[C@H]1COC2(CCN(c3nc(=O)c4cc(C(F)(F)F)cc([N+](=O)[O-])c4s3)CC2)O1 (racemic) [BTZ043 Racemate]
[1]; [20]
  Dose.FC.LYZ.NS: 0.131 log 2 fold change
[1]; [21]
  Z.LYZ.NS: 1.138
[1]; [22]
  Dose.FC.LYZ.NS: 0.186 log 2 fold change
[1]; [23]
  Z.LYZ.NS: 1.619
[1]; [24]
  Dose.FC.LYZ.NS: 0.089 log 2 fold change
[1]; [25]
  Z.LYZ.NS: 0.776
[1]; [26]
  Dose.FC.LYZ.NS: 0.100 log 2 fold change
[1]; [27]
  Z.LYZ.NS: 0.870
[2]; dose 0.08 uM, ENR+CD 6 days
  Dose.FC.LYZ.S: 0.199 log 2 fold change
[2]; dose 0.40 uM, ENR+CD 6 days
  Dose.FC.LYZ.S: 0.252 log 2 fold change
[2]; dose 2.00 uM, ENR+CD 6 days
  Dose.FC.LYZ.S: 0.038 log 2 fold change
[2]; dose 10.00 uM, ENR+CD 6 days
  Dose.FC.LYZ.S: 0.070 log 2 fold change
[3]; [20]
  Dose.FC.CTG: 0.497 log 2 fold change
[3]; [21]
  Z.CTG: 1.187
[3]; [22]
  Dose.FC.CTG: 0.545 log 2 fold change
[3]; [23]
  Z.CTG: 1.303
[3]; [24]
  Dose.FC.CTG: 0.063 log 2 fold change
[3]; [25]
  Z.CTG: 0.150
[3]; [26]
  Dose.FC.CTG: 0.327 log 2 fold change
[3]; [27]
  Z.CTG: 0.782

## Cl.N[C@@H]1C[C@H]1c1ccccc1 (racemic) [Tranylcypromine (2-PCPA) HCl]
[1]; dose 0.08 uM
  Z.LYZ.NS (standard z score): 0.285
  Dose.FC.LYZ.NS (log 2 fold change, basal lysozyme secretion): 0.033
[1]; dose 0.40 uM
  Z.LYZ.NS (standard z score): −0.426
  Dose.FC.LYZ.NS (log 2 fold change, basal lysozyme secretion): −0.049
[1]; dose 2.00 uM
  Z.LYZ.NS (standard z score): 0.423
  Dose.FC.LYZ.NS (log 2 fold change, basal lysozyme secretion): 0.049
[1]; dose 10.00 uM
  Z.LYZ.NS (standard z score): −0.389
  Dose.FC.LYZ.NS (log 2 fold change, basal lysozyme secretion): −0.045
[2]; dose 0.08 uM
  Dose.FC.LYZ.S (log 2 fold change, carbachol-induced lysozyme secretion): 0.050
[2]; dose 0.40 uM
  Dose.FC.LYZ.S (log 2 fold change, carbachol-induced lysozyme secretion): −0.037
[2]; dose 2.00 uM
  Dose.FC.LYZ.S (log 2 fold change, carbachol-induced lysozyme secretion): 0.036
[2]; dose 10.00 uM
  Dose.FC.LYZ.S (log 2 fold change, carbachol-induced lysozyme secretion): −0.096
[3]; dose 0.08 uM
  Z.CTG (standard z score): −0.153
  Dose.FC.CTG (log 2 fold change, ATP): −0.064
[3]; dose 0.40 uM
  Z.CTG (standard z score): 0.148
  Dose.FC.CTG (log 2 fold change, ATP): 0.062
[3]; dose 2.00 uM
  Z.CTG (standard z score): 0.128
  Dose.FC.CTG (log 2 fold change, ATP): 0.053
[3]; dose 10.00 uM
  Z.CTG (standard z score): −1.274
  Dose.FC.CTG (log 2 fold change, ATP): −0.533
